# Data: US6787525B1, “Glyceryl nucleotides, method for the production thereof and their use” (priority 1998, dated 2004)
# Tests used:
# HL-60(TB) = details: for GI50 / TGI: Leukemia, 48-hour incubation; for CC50: read-out: LC50, Leukemia, 48-hour incubation
# M14 = test: In vitro cytostatic effect (SRB): M14, Melanoma; details: for GI50 / TGI: 48-hour incubation; for CC50: read-out: LC50, 48-hour incubation
# K-562 = test: In vitro cytostatic effect (SRB): K-562, Leukemia; details: for GI50 / TGI: 48-hour incubation; for CC50: read-out: LC50, 48-hour incubation
# CCRF-CEM = test: In vitro cytostatic effect (SRB): CCRF-CEM, Leukemia; details: for CC50: read-out: LC50, 48-hour incubation
# SK-MEL-2 = test: In vitro cytostatic effect (SRB): SK-MEL-2, Melanoma; details: for GI50 / TGI: 48-hour incubation; for CC50: read-out: LC50, 48-hour incubation
# UACC-257 = test: In vitro cytostatic effect (SRB): UACC-257, Melanoma; details: for GI50 / TGI: 48-hour incubation; for CC50: read-out: LC50, 48-hour incubation
# RPMI-8226 = test: In vitro cytostatic effect (SRB): RPMI-8226, Leukemia; details: for GI50 / TGI: 48-hour incubation; for CC50: read-out: LC50, 48-hour incubation
# A498 = test: In vitro cytostatic effect (SRB): A498, Kidney cancer
# ACHN = test: In vitro cytostatic effect (SRB): ACHN, Kidney cancer; details: for GI50 / TGI: 48-hour incubation; for CC50: read-out: LC50, 48-hour incubation
# MCF7 = test: In vitro cytostatic effect (SRB): MCF7, Breast cancer
# NCI-H23 = test: In vitro cytostatic effect (SRB): NCI-H23, Lung cancer; details: for GI50 / TGI: 48-hour incubation; for CC50: read-out: LC50, 48-hour incubation
# T-47D = test: In vitro cytostatic effect (SRB): T-47D, Breast cancer; details: for GI50 / TGI: 48-hour incubation; for CC50: read-out: LC50, 48-hour incubation
# NCI-H226 = test: In vitro cytostatic effect (SRB): NCI-H226, Lung cancer; details: for GI50 / TGI: 48-hour incubation; for CC50: read-out: LC50, 48-hour incubation
# CAKI-1 = test: In vitro cytostatic effect (SRB): CAKI-1, Kidney cancer; details: for GI50 / TGI: 48-hour incubation; for CC50: read-out: LC50, 48-hour incubation
# BT-549 = test: In vitro cytostatic effect (SRB): BT-549, Breast cancer; details: for GI50 / TGI: 48-hour incubation; for CC50: read-out: LC50, 48-hour incubation
# RXF 393 = test: In vitro cytostatic effect (SRB): RXF 393, Kidney cancer; details: for GI50 / TGI: 48-hour incubation; for CC50: read-out: LC50, 48-hour incubation
# HT29 = test: In vitro cytostatic effect (SRB): HT29, Intestinal cancer; details: for GI50 / TGI: 48-hour incubation; for CC50: read-out: LC50, 48-hour incubation
# KM12 = test: In vitro cytostatic effect (SRB): KM12, Intestinal cancer; details: for GI50 / TGI: 48-hour incubation; for CC50: read-out: LC50, 48-hour incubation
# OVCAR-3 = test: In vitro cytostatic effect (SRB): OVCAR-3, Ovarian cancer; details: for GI50 / TGI: 48-hour incubation; for CC50: read-out: LC50, 48-hour incubation
# OVCAR-5 = test: In vitro cytostatic effect (SRB): OVCAR-5, Ovarian cancer; details: for GI50 / TGI: 48-hour incubation; for CC50: read-out: LC50, 48-hour incubation
# OVCAR-8 = test: In vitro cytostatic effect (SRB): OVCAR-8, Ovarian cancer; details: for GI50 / TGI: 48-hour incubation; for CC50: read-out: LC50, 48-hour incubation
# SK-OV-3 = test: In vitro cytostatic effect (SRB): SK-OV-3, Ovarian cancer; details: for GI50 / TGI: 48-hour incubation; for CC50: read-out: LC50, 48-hour incubation
# DU-145 = test: In vitro cytostatic effect (SRB): DU-145, Prostate cancer; details: for GI50 / TGI: 48-hour incubation; for CC50: read-out: LC50, 48-hour incubation
# HCT-15 = test: In vitro cytostatic effect (SRB): HCT-15, Intestinal cancer; details: for GI50 / TGI: 48-hour incubation
# MDA-MB-231/ATCC = test: In vitro cytostatic effect (SRB): MDA-MB-231/ATCC, Breast cancer; details: for GI50 / TGI: 48-hour incubation; for CC50: read-out: LC50, 48-hour incubation
# U251 = test: In vitro cytostatic effect (SRB): U251, Cancer of the central nervous system; details: for GI50 / TGI: 48-hour incubation; for CC50: read-out: LC50, 48-hour incubation
# SF-268 = test: In vitro cytostatic effect (SRB): SF-268, Cancer of the central nervous system; details: for GI50 / TGI: 48-hour incubation; for CC50: read-out: LC50, 48-hour incubation
# SF-539 = test: In vitro cytostatic effect (SRB): SF-539, Cancer of the central nervous system; details: for GI50 / TGI: 48-hour incubation; for CC50: read-out: LC50, 48-hour incubation
# [1] = read-out: LC50, 48-hour incubation
smiles,measurement,setting,value
"CCCCCCCCCCCCCCCCCCOC(COP(=O)(O)OCC1OC(n2cc(F)c(=O)[nH]c2=O)CC1O)COP(=O)(O)OCC1OC(n2ccc(N)nc2=O)C(O)C1O (racemic) [NSC 698688-A/1, arabinocytidylyl-(5′→1)-2-O-octadecyl-rac-glycerylyl-(3→5′)-5-fluoro-2′-deoxyuridine]",GI50,HL-60(TB),3.66 µM
same,TGI,HL-60(TB),>1.00E − 04 mol/l
same,CC50,HL-60(TB),> 100 µM
same,GI50,M14,3.53 µM
same,TGI,M14,8.62E − 05 mol/l
same,CC50,M14,> 100 µM
same,GI50,K-562,3.35 µM
same,TGI,K-562,>1.00E − 04 mol/l
same,CC50,K-562,> 100 µM
same,GI50,CCRF-CEM; 48-hour incubation,1.28 µM
same,TGI,CCRF-CEM; 48-hour incubation,>1.00E − 04 mol/l
same,CC50,CCRF-CEM,> 100 µM
same,GI50,SK-MEL-2,> 100 µM
same,TGI,SK-MEL-2,>1.00E − 04 mol/l
same,CC50,SK-MEL-2,> 100 µM
same,GI50,UACC-257,49.8 µM
same,TGI,UACC-257,>1.00E − 04 mol/l
same,CC50,UACC-257,> 100 µM
same,GI50,RPMI-8226,1.65 µM
same,TGI,RPMI-8226,>1.00E − 04 mol/l
same,CC50,RPMI-8226,> 100 µM
same,GI50,A498; 48-hour incubation,0.319 µM
same,TGI,A498; 48-hour incubation,>1.00E − 04 mol/l
same,CC50,A498; [1],> 100 µM
same,GI50,ACHN,0.466 µM
same,TGI,ACHN,>1.00E − 04 mol/l
same,CC50,ACHN,> 100 µM
same,GI50,MCF7; 48-hour incubation,0.17 µM
same,TGI,MCF7; 48-hour incubation,>1.00E − 04 mol/l
same,CC50,MCF7; [1],> 100 µM
same,GI50,NCI-H23,7.23 µM
same,TGI,NCI-H23,>1.00E − 04 mol/l
same,CC50,NCI-H23,> 100 µM
same,GI50,T-47D,> 100 µM
same,TGI,T-47D,>1.00E − 04 mol/l
same,CC50,T-47D,> 100 µM
same,GI50,NCI-H226,75.9 µM
same,TGI,NCI-H226,>1.00E − 04 mol/l
same,CC50,NCI-H226,> 100 µM
same,GI50,CAKI-1,10.4 µM
same,TGI,CAKI-1,>1.00E − 04 mol/l
same,CC50,CAKI-1,> 100 µM
same,GI50,BT-549,14.5 µM
same,TGI,BT-549,8.69E − 05 mol/l
same,CC50,BT-549,> 100 µM
same,GI50,RXF 393,10.2 µM
same,TGI,RXF 393,2.86E − 05 mol/l
same,CC50,RXF 393,80 µM
same,GI50,HT29,12.5 µM
same,TGI,HT29,>1.00E − 04 mol/l
same,CC50,HT29,> 100 µM
same,GI50,KM12,74.7 µM
same,TGI,KM12,>1.00E − 04 mol/l
same,CC50,KM12,> 100 µM
same,GI50,OVCAR-3,> 100 µM
same,TGI,OVCAR-3,>1.00E − 04 mol/l
same,CC50,OVCAR-3,> 100 µM
same,GI50,OVCAR-5,89.6 µM
same,TGI,OVCAR-5,>1.00E − 04 mol/l
same,CC50,OVCAR-5,> 100 µM
same,GI50,OVCAR-8,0.968 µM
same,TGI,OVCAR-8,>1.00E − 04 mol/l
same,CC50,OVCAR-8,> 100 µM
same,GI50,SK-OV-3,36.3 µM
same,TGI,SK-OV-3,>1.00E − 04 mol/l
same,CC50,SK-OV-3,> 100 µM
same,GI50,DU-145,2.68 µM
same,TGI,DU-145,>1.00E − 04 mol/l
same,CC50,DU-145,> 100 µM
same,GI50,HCT-15,14.4 µM
same,TGI,HCT-15,>1.00E − 04 mol/l
same,CC50,HCT-15; [1],> 100 µM
same,GI50,MDA-MB-231/ATCC,> 100 µM
same,TGI,MDA-MB-231/ATCC,>1.00E − 04 mol/l
same,CC50,MDA-MB-231/ATCC,> 100 µM
same,GI50,U251,3.14 µM
same,TGI,U251,2.48E − 05 mol/l
same,CC50,U251,73.8 µM
same,GI50,SF-268,0.745 µM
same,TGI,SF-268,>1.00E − 04 mol/l
same,CC50,SF-268,> 100 µM
same,GI50,SF-539,0.488 µM
same,TGI,SF-539,1.03E − 05 mol/l
same,CC50,SF-539,80.3 µM
"Nc1ccn(C2CCC(COP(=O)(O)OCC(O)COP(=O)(O)OCC3OC(n4cc(F)c(=O)[nH]c4=O)CC3O)O2)c(=O)n1 (racemic) [NSC 704533, 2′,3′-didesoxycytidylyl-(5′→1)-racglycerylyl-(3→5′)-5-fluoro-2′-desoxyuridine]",GI50,HL-60(TB),0.0715 µM
same,TGI,HL-60(TB),>1.00E − 04 mol/l
same,CC50,HL-60(TB),> 100 µM
same,GI50,M14,0.203 µM
same,TGI,M14,>1.00E − 04 mol/l
same,CC50,M14,> 100 µM
same,GI50,K-562,2.57 µM
same,TGI,K-562,>1.00E − 04 mol/l
same,CC50,K-562,> 100 µM
same,TGI,CCRF-CEM; 48-hour incubation,>1.00E − 04 mol/l
same,CC50,CCRF-CEM,> 100 µM
same,GI50,SK-MEL-2,79.4 µM
same,TGI,SK-MEL-2,>1.00E − 04 mol/l
same,CC50,SK-MEL-2,> 100 µM
same,GI50,UACC-257,> 100 µM
same,TGI,UACC-257,>1.00E − 04 mol/l
same,CC50,UACC-257,> 100 µM
same,GI50,RPMI-8226,11 µM
same,TGI,RPMI-8226,>1.00E − 04 mol/l
same,CC50,RPMI-8226,> 100 µM
same,GI50,ACHN,< 0.01 µM
same,TGI,ACHN,>1.00E − 04 mol/l
same,CC50,ACHN,> 100 µM
same,GI50,NCI-H23,0.0979 µM
same,TGI,NCI-H23,>1.00E − 04 mol/l
same,CC50,NCI-H23,> 100 µM
same,GI50,T-47D,1.42 µM
same,TGI,T-47D,>1.00E − 04 mol/l
same,CC50,T-47D,> 100 µM
same,GI50,NCI-H226,> 100 µM
same,TGI,NCI-H226,>1.00E − 04 mol/l
same,CC50,NCI-H226,> 100 µM
same,GI50,CAKI-1,1.44 µM
same,TGI,CAKI-1,>1.00E − 04 mol/l
same,CC50,CAKI-1,> 100 µM
same,GI50,BT-549,4.15 µM
same,TGI,BT-549,>1.00E − 04 mol/l
same,CC50,BT-549,> 100 µM
same,GI50,RXF 393,5.12 µM
same,TGI,RXF 393,>1.00E − 04 mol/l
same,CC50,RXF 393,> 100 µM
same,GI50,HT29,1.88 µM
same,TGI,HT29,>1.00E − 04 mol/l
same,CC50,HT29,> 100 µM
same,GI50,KM12,14.5 µM
same,TGI,KM12,>1.00E − 04 mol/l
same,CC50,KM12,> 100 µM
same,GI50,OVCAR-3,65.4 µM
same,TGI,OVCAR-3,>1.00E − 04 mol/l
same,CC50,OVCAR-3,> 100 µM
same,GI50,OVCAR-5,12.6 µM
same,TGI,OVCAR-5,>1.00E − 04 mol/l
same,CC50,OVCAR-5,> 100 µM
same,GI50,OVCAR-8,0.141 µM
same,TGI,OVCAR-8,>1.00E − 04 mol/l
same,CC50,OVCAR-8,> 100 µM
same,GI50,SK-OV-3,44.3 µM
same,TGI,SK-OV-3,>1.00E − 04 mol/l
same,CC50,SK-OV-3,> 100 µM
same,GI50,DU-145,0.158 µM
same,TGI,DU-145,>1.00E − 04 mol/l
same,CC50,DU-145,> 100 µM
same,GI50,HCT-15,17.9 µM
same,TGI,HCT-15,>1.00E − 04 mol/l
same,GI50,MDA-MB-231/ATCC,95.5 µM
same,TGI,MDA-MB-231/ATCC,>1.00E − 04 mol/l
same,CC50,MDA-MB-231/ATCC,> 100 µM
same,GI50,U251,1.26 µM
same,TGI,U251,>1.00E − 04 mol/l
same,CC50,U251,> 100 µM
same,GI50,SF-268,< 0.01 µM
same,TGI,SF-268,>1.00E − 04 mol/l
same,CC50,SF-268,> 100 µM
same,GI50,SF-539,0.0216 µM
same,TGI,SF-539,>1.00E − 04 mol/l
same,CC50,SF-539,> 100 µM
